Test results: patent US10364256B2 (GlaxoSmithKline Intellectual Property Development Limited, priority 2015, dated 2019)
Read-outs that look alike come from different tables or passages of the source.

Tests used:
[1] = tested on: NQO1 specific enzyme activity in BEAS-2B cells (marker for NRF2 activation); experiment: BEAS-2B NQO1 MTT Assay; assay type: cell-based; details: Homo sapiens
Method in brief: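 BEAS-2B cells treated with compound for 48 h at 37 °C, then lysed; NQO1 activity in lysates measured kinetically by MTT reduction at A570 over 30 min. pEC50 from 3-parameter fit of ΔOD/min versus log concentration; lysate also taken for Cell Titer Glo.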

[2] = target: T1, full length Keap1 protein / full length NRF2 protein (Homo sapiens, UniProt Q14145); experiment: NRF2-Keap1 TR-FRET Assay; assay type: binding; details: 25 nM Keap1-FlagHis and 50 nM biotin-NRF2 added
T1 construct: full length NRF2 protein and full length Keap1 protein (Keap1 exists a dimer) are used; His
T1 sequence (Q14145 whole entry): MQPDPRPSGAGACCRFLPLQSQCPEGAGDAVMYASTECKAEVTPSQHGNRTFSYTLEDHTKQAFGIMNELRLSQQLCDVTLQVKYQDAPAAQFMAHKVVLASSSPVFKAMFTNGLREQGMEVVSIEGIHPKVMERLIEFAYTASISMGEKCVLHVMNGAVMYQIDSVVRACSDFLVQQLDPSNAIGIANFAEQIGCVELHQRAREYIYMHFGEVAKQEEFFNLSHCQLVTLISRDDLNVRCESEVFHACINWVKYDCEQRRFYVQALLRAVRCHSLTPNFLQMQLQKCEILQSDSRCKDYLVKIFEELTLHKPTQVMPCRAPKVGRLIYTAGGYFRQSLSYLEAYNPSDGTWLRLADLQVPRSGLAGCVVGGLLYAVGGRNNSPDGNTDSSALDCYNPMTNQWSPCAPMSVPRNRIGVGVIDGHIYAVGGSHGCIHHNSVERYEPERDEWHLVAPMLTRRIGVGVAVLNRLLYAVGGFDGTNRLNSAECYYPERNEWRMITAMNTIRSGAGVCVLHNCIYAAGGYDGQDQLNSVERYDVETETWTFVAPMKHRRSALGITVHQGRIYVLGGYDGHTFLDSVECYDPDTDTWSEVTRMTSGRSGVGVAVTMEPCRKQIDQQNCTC
Source text: In the NRF2-Keap1 TR-FRET (time-resolved fluorescence resonance energy transfer) assay, full length NRF2 protein and full length Keap1 protein (Keap1 exists a dimer) are used. The assay detects the ability of compound to displace the binding of FlagHis-tagged Keap1 with biotinylated, Avi-tagged NRF2 protein. Biotin-NRF2 binds to streptavidin-europium (a component of the detection mix) and Keap1-FlagHis is recognized by anti-Flag APC (allophycocyanin) antibody (also a component of the detection mix). If binding occurs between the two proteins, there will be an energy transfer from the Eu+3 (donor) at 615 nm to the APC (acceptor) at 665 nm. A potential Keap1 inhibitor will cause a reduction in the TR-FRET signal by interfering with the binding of Keap1 to NRF2.
One hundred nanoliters of 100× compound dose response curves (serial 3-fold dilutions) in DMSO are stamped using an Echo liquid handling system (Labcyte) into 384-well, low volume, black assay plates (Greiner, #784076), with DMSO in columns 6 and 18. The top concentration of compound is located in columns 1 and 13. All reagents are diluted in assay buffer (50 mM Tris, pH 8.0, 5 mM MgCl2, 100 mM NaCl, 0.005% BSA, 1 mM DTT, and 2 mM CHAPS). The BSA, DTT, and CHAPS are added to the assay buffer on the day of assay. Using a Multidrop Combi (Thermo Electron Corporation) equipped with a metal tip dispenser, 5 ul of 25 nM Keap1-FlagHis protein is added to all wells of the compound plate, with the exception of the wells in column 18. Wells in column 18 receive 5 ul of assay buffer instead. Plates are centrifuged at 500 rpm for 1 minute, covered with a plate lid, and incubated at 37° C. for 2.25 hours. Plates are then removed from the incubator and allowed to cool to RT for 15 minutes. Five microliters of 50 nM biotin-NRF2 protein is then added to all wells of the plates and the plates are spun at 500 rpm for 1 minute, followed by incubating at 4° C. for 1.25 hours. The plates are then allowed to warm to RT for 15 minutes, followed by the addition of 10 ul of detection mix (1 nM Streptavidin Eu+ W1024 and 5 ug/ml mouse anti-DYKDDDDK IgG conjugated to SureLight APC antibody; both from Columbia Biosciences) to all wells. Plates are spun at 500 rpm for 1 minute, incubated for 1 hour at RT, and read on an Envision plate reader using a 320 nm excitation filter and 615 nm and 665 nm emission filters. Compound response (% inhibition) and potency (pIC50) are calculated based on the ratio of the two emissions (665 nm/615 nm) and then the transformed data is normalized against controls in the assay (control 1=1% DMSO in the presence of NRF2 and Keap1 protein and control 2=1% DMSO in the absence of protein). Data analysis is handled using the software package Abase XE (Surrey, United Kingdom). The % inhibition values are calculated from the ratio (transformed) data by the equation: 100−(100*(compound response−average control 2)/(average control 1−average control2)). For calculation of pIC50s, Abase XE uses a four parameter equation. pIC50 is the negative log of the IC50.

[3] = target: T2, Keap1 Kelch domain (321-609) / TAMRA-labeled 16mer NRF2 peptide (ETGE motif) (Homo sapiens, UniProt Q14145); experiment: NRF2-Keap1 FP Assay (Keap1 Kelch fluorescence polarization); assay type: binding; details: 20 nM Keap1 (321-609), 8 nM Tamra labeled peptide
T2 construct: the Kelch domain (321-609) of Keap1 is used
T2 sequence (Q14145 321-609): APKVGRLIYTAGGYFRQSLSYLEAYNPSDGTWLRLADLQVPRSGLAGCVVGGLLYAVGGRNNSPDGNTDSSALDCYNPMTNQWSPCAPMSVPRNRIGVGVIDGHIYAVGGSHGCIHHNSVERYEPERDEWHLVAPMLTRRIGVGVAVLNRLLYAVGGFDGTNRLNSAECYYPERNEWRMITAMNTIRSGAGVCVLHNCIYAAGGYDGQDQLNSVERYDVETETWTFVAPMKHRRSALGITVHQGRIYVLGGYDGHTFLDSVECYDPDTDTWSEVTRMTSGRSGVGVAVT
Method in brief: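 Compound dilutions (3-fold) were incubated 1 hr at room temperature with 20 nM Keap1 Kelch (321-609) and 8 nM TAMRA-labeled ETGE 16mer peptide. Buffer was 50 mM Tris pH 8.0, 100 mM NaCl, 5 mM MgCl2, 1 mM DTT, 2 mM CHAPS, 0.005% BSA. Fluorescence polarization (mP) was normalized to controls and fitted with a four-parameter equation to give pIC50.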

[4] = target: T1, full length Keap1 protein / full length NRF2 protein; experiment: NRF2-Keap1 TR-FRET Low Protein Assay; assay type: binding; details: 1.25 nM Keap1 FlagHis and 2.5 nM biotin-NRF2 added
Method in brief: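 Flag-tagged full-length Keap1 was preincubated with compound (3-fold series) for 2.25 h at 37 °C in Tris pH 8.0/MgCl2/NaCl/BSA/DTT/CHAPS. Biotin-Avi-NRF2 (added at 2.5 nM) was then bound for 1.25 h at 4 °C. Eu-streptavidin/anti-Flag-APC TR-FRET (665/615 nm) was read after 1 h at RT, and pIC50 came from a four-parameter fit.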

[5] = compound incubated 48 hours, read-out: EC50 (NQO1 specific enzyme activity induction)
[6] = BEAS-2B, 48 h, compound incubated 48 hours, read-out: EC50 (NQO1 specific enzyme activity induction)

Row | Compound | EC50 [1, 5] | IC50 [2] | IC50 [3] | EC50 [1, 6] | IC50 [4] | EC50 ([1]; in two determinations (footnote ϕ), read-out: EC50 in two determinations)
1 | CC(=O)N[C@@H]1CC[C@H](c2c(C(=O)O)cnn2-c2cccc(-c3cccc(OC(C)C)c3F)c2)C1 (racemic) [Example 13, 5-[(cis)-3-Acetamidocyclopentyl]-1-{3-[2-fluoro-3-(propan-2-yloxy)phenyl]phenyl}-1H-pyrazole-4-carboxylic Acid] | 1000 to 10000 nM | 10000 to 100000 nM | 1000 to 10000 nM |  |  | 
2 | Cn1cc([C@H]2C[C@@H]2c2c(C(=O)O)cnn2-c2cccc(-c3cccc(OCC(C)(C)C)c3)c2)nn1 (racemic) [Example 226, 5-((1,2-trans)-2-(1-Methyl-1H-1,2,3-triazol-4-yl)cyclopropyl)-1-(3′-(neopentyloxy)-[1,1′-biphenyl]-3-yl)-1H-pyrazole-4-carboxylic acid] | 10 to 100 nM | 100 to 1000 nM | 100 to 1000 nM |  |  | 
3 | Cn1cc([C@H]2C[C@@H]2c2c(C(=O)O)cnn2-c2cccc(-c3cccc(OCc4cncnc4)c3)c2)nn1 (racemic) [Example 236, 5-((1,2-trans)-2-(1-Methyl-1H-1,2,3-triazol-4-yl)cyclopropyl)-1-(3′-(pyrimidin-5-ylmethoxy)-[1,1′-bipheny1]-3-yl)-1H-pyrazole-4-carboxylic acid] | 1000 to 10000 nM | 1000 to 10000 nM | 100 to 1000 nM |  |  | 
4 | Cn1cc([C@@H]2C[C@H]2c2c(C(=O)O)cnn2-c2cccc(-c3cccc(CN4CCCCC4)c3)c2)nn1 (racemic) [Example 247, 5-(trans-2-(1-Methyl-1H-1,2,3-triazol-4-yl)cyclopropyl)-1-(3′-(piperidin-1-ylmethyl)-[1,1′-biphenyl]-3-yl)-1H-pyrazole-4-carboxylic Acid] | 1000 to 10000 nM | 1000 to 10000 nM | 100 to 1000 nM |  |  | 
5 | Cn1cc([C@@H]2C[C@H]2c2c(C(=O)O)cnn2-c2cccc(-c3cccc(CN4CCOCC4)c3)c2)nn1 (racemic) [Example 248, 5-(trans-2-(1-Methyl-1H-1,2,3-triazol-4-yl)cyclopropyl)-1-(3′-(morpholinomethyl)-[1,1′-biphenyl]-3-yl)-1H-pyrazole-4-carboxylic Acid] | 1000 to 10000 nM | 100 to 1000 nM | 100 to 1000 nM |  |  | 
6 | CN(CC1CC1)C(=O)c1cccc(-c2cccc(-n3ncc(C(=O)O)c3[C@@H]3C[C@H]3c3cn(C)nn3)c2)c1F (racemic) [Example 265] | 1000 to 10000 nM | 10 to 100 nM | 10 to 100 nM |  |  | 
7 | CCC[C@@H]1CCCCN1C(=O)c1cccc(-c2cc(C)cc(-n3ncc(C(=O)O)c3[C@H]3C[C@@H]3c3cn(C)nn3)c2)c1 (single isomer, unassigned) [Example 156] |  | 100 to 1000 nM | 100 to 1000 nM | 100 to 1000 nM |  | 
8 | CN(C)C(=O)c1cccc(-c2cccc(-n3ncc(C(=O)O)c3C3CCCC3)c2)c1F [Example 1, 5-Cyclopentyl-1-{3-[3-(dimethylcarbamoyl)-2-fluorophenyl]phenyl}-1H-pyrazole-4-carboxylic Acid] | 1000 to 10000 nM | 10000 to 100000 nM | 100 to 1000 nM |  |  | 
9 | CN(C)C(=O)c1cccc(-c2cccc(-n3ncc(C(=O)O)c3C(F)(F)F)c2)c1F [Example 2, 1-{3-[3-(Dimethylcarbamoyl)-2-fluorophenyl]phenyl}-5-(trifluoromethyl)-1H-pyrazole-4-carboxylic Acid] | 1000 to 10000 nM | 1000 to 10000 nM | 100 to 1000 nM |  |  | 
10 | CN(C(=O)c1cccc(-c2cccc(-n3ncc(C(=O)O)c3C3CC3)c2)c1F)C1CCCC1 [Example 3, 1-(3-{3-[Cyclopentyl(methyl)carbamoyl]-2-fluorophenyl}phenyl)-5-cyclopropyl-1H-pyrazole-4-carboxylic Acid] | 1000 to 10000 nM | 1000 to 10000 nM | 100 to 1000 nM |  |  | 
11 | CC(C)CN(C)C(=O)c1cccc(-c2cccc(-n3ncc(C(=O)O)c3C3CC3)c2)c1F [Example 4, 5-Cyclopropyl-1-(3-{2-fluoro-3-[methyl(2-methylpropyl)carbamoyl]phenyl}phenyl)-1H-pyrazole-4-carboxylic Acid] | 1000 to 10000 nM | 1000 to 10000 nM | 100 to 1000 nM |  |  | 
12 | CCN1CCN(Cc2cccc(-c3cccc(-n4ncc(C(=O)O)c4[C@@H]4C[C@H]4c4cn(C)nn4)c3)c2)S(=O)(=O)c2ccccc21 [Example 139, 1-(3′-((5-Ethyl-1,1-dioxido-4,5-dihydrobenzo[f][1,2,5]thiadiazepin-2(3H)-yl)methyl)-[1,1′-biphenyl]-3-yl)-5-((1R, 2R)-2-(1-methyl-1H-1,2,3-triazol-4-yl)cyclopropyl)-1H-pyrazole-4-carboxylic acid] | 1000 to 10000 nM |  | 10 to 100 nM |  | < 10 nM | 
13 | C[C@@H](Oc1cccc(-c2cccc(-n3ncc(C(=O)O)c3[C@@H]3C[C@H]3c3cn(C)nn3)c2)c1)C1CCCCC1 [Example 162, 1-(3′-((R)-1-Cyclohexylethoxy)-[1,1′-biphenyl]-3-yl)-5-((1R,2R)-2-(1-methyl-1H-1,2,3-triazol-4-yl)cyclopropyl)-1H-pyrazole-4-carboxylic Acid] |  |  | 100 to 1000 nM | 10 to 100 nM | 10 to 100 nM | 
14 | Cn1cc(C2CC2c2c(C(=O)O)cnn2-c2cccc(-c3cccc(OCCC4CCCCC4)c3)c2)nn1 (stereo not shown) [Example 170, 1-(3′-(2-Cyclohexylethoxy)-[1,1′-biphenyl]-3-yl)-5-(2-(1-methyl-1H-1,2,3-triazol-4-yl)cyclopropyl)-1H-pyrazole-4-carboxylic acid] | 100 to 1000 nM |  | 10 to 100 nM |  | 10 to 100 nM | 
15 | CCn1cc([C@H]2C[C@@H]2c2c(C(=O)O)cnn2-c2cc(OC)cc(-c3cccc(OC(C)C4CCCCC4)c3)c2)nn1 (stereo partly drawn) [Example 193, 1-(3′-(1-cyclohexylethoxy)-5-methoxy-[1,1′-biphenyl]-3-yl)-5-((1S,2S)-2-(1-ethyl-1H-1,2,3-triazol-4-yl)cyclopropyl)-1H-pyrazole-4-carboxylic acid] | 100 to 1000 nM |  | 100 to 1000 nM |  | 100 to 1000 nM | 
16 | CC[C@@H]1CN(Cc2cccc(-c3cccc(-n4ncc(C(=O)O)c4[C@@H]4C[C@H]4c4cn(C)nn4)c3)c2)S(=O)(=O)c2ccccc2O1 [Example 255, 1-(3′-(((R)-4-Ethyl-1,1-dioxido-3,4-dihydro-2H-benzo[b][1,4,5]oxathiazepin-2-yl)methyl)-[1,1′-biphenyl]-3-yl)-5-(trans-2-(1-methyl-1H-1,2,3-triazol-4-yl)cyclopropyl)-1H-pyrazole-4-carboxylic Acid] | 100 to 1000 nM |  | 10 to 100 nM |  | < 10 nM | > 1000 nM
17 | CC[C@@H]1CN(C(=O)c2cccc(-c3cccc(-n4ncc(C(=O)O)c4[C@@H]4C[C@H]4c4cn(C)nn4)c3)c2)Cc2ccccc2O1 [Example 257] | 1000 to 10000 nM |  | 10 to 100 nM |  | < 10 nM | 
